# In publication PMC9516332 (Frontiers in Oncology, 2022):
# pIC50: −log10 of the molar value. Where two headings read alike, the source gives them in different places.
# What was measured:
# [1] = system: AP-1060 (ETV6-NTRK3); assay: Cell viability assay; settings: read-out: IC50 in cell proliferation assay
# [2] = system: 134 cancer cell lines; assay: Cell viability assay (ATPlite, 72 hours), IC50 on cancer cell line panel
structure (smiles),measurement,setting,value
C[C@H](Nc1ncnc2nc[nH]c12)c1cc2cccc(Cl)c2c(=O)n1-c1ccccc1 [duvelisib],pIC50,[1],4.95
same,pIC50,"[2]; HEC-6, read-out: IC50 in cell proliferation assay, HEC-6 cell line (EGFR p.A289V)",< 4.50
same,pIC50,"[2]; Homo sapiens, 769-P, read-out: IC50 in cell proliferation assay, cell line 769-P",4.51
same,pIC50,"[2]; Homo sapiens, 786-0, read-out: IC50 in cell proliferation assay, cell line 786-O",4.85
same,pIC50,"[2]; Homo sapiens, A 172, read-out: IC50 in cell proliferation assay, cell line A-172",< 4.50
same,pIC50,"[2]; Homo sapiens, A204, read-out: IC50 in cell proliferation assay, cell line A-204",5.93
same,pIC50,"[2]; Homo sapiens, A498, read-out: IC50 in cell proliferation assay, cell line A-498",5.47
same,pIC50,"[2]; Homo sapiens, A549, read-out: IC50 in cell proliferation assay, cell line A-549",4.62
same,pIC50,"[2]; Homo sapiens, A704, read-out: IC50 in cell proliferation assay, cell line A-704",< 4.50
same,pIC50,"[2]; Homo sapiens, A-375, read-out: IC50 in cell proliferation assay, cell line A-375 (BRAF p.V600E)",4.63
same,pIC50,"[2]; Homo sapiens, A-427, read-out: IC50 in cell proliferation assay, cell line A-427",4.83
same,pIC50,"[2]; Homo sapiens, ACHN, read-out: IC50 in cell proliferation assay, cell line ACHN",5.14
same,pIC50,"[2]; Homo sapiens, AN3-CA, read-out: IC50 in cell proliferation assay, cell line AN3-CA (FGFR2 p.N549K)",5.38
same,pIC50,"[2]; Homo sapiens, ASPC1, read-out: IC50 in cell proliferation assay, cell line AsPC-1",< 4.50
same,pIC50,"[2]; Homo sapiens, AU565, read-out: IC50 in cell proliferation assay, cell line AU565 (ERBB2 amplification)",5.11
same,pIC50,"[2]; Homo sapiens, BT-20, read-out: IC50 in cell proliferation assay, cell line BT-20",4.52
same,pIC50,"[2]; Homo sapiens, BT-474, read-out: IC50 in cell proliferation assay, cell line BT-474 (ERBB2 amplification)",5.04
same,pIC50,"[2]; Homo sapiens, BT-549, read-out: IC50 in cell proliferation assay, cell line BT-549",6.46
same,pIC50,"[2]; Homo sapiens, BXPC-3, read-out: IC50 in cell proliferation assay, cell line BxPC-3",4.78
same,pIC50,"[2]; Homo sapiens, C-33-A, read-out: IC50 in cell proliferation assay, cell line C-33 A",5.01
same,pIC50,"[2]; Homo sapiens, CAL-27, read-out: IC50 in cell proliferation assay, cell line CAL-27",5.05
same,pIC50,"[2]; Homo sapiens, CCF-STTG1, read-out: IC50 in cell proliferation assay, cell line CCF-STTG1",< 4.50
same,pIC50,"[2]; Homo sapiens, CCRF-CEM, read-out: IC50 in cell proliferation assay, cell line CCRF-CEM",6.04
same,pIC50,"[2]; Homo sapiens, COLO 205, read-out: IC50 in cell proliferation assay, cell line COLO 205 (BRAF p.V600E)",4.69
same,pIC50,"[2]; Homo sapiens, COLO-829, read-out: IC50 in cell proliferation assay, cell line COLO 829 (BRAF p.V600E)",< 4.50
same,pIC50,"[2]; Homo sapiens, DLD-1, read-out: IC50 in cell proliferation assay, cell line DLD-1",4.73
same,pIC50,"[2]; Homo sapiens, DU-4475, read-out: IC50 in cell proliferation assay, cell line DU4475 (BRAF p.V600E)",< 4.50
same,pIC50,"[2]; Homo sapiens, Daoy, read-out: IC50 in cell proliferation assay, cell line Daoy",4.92
same,pIC50,"[2]; Homo sapiens, DoTc2-4510, read-out: IC50 in cell proliferation assay, cell line DoTc2 4510",5.05
same,pIC50,"[2]; Homo sapiens, EOL1, read-out: IC50 in cell proliferation assay, cell line EoL-1 (FIP1L1-PDGFRA)",7.48
same,pIC50,"[2]; Homo sapiens, FaDu, read-out: IC50 in cell proliferation assay, cell line FaDu",4.73
same,pIC50,"[2]; Homo sapiens, G-361, read-out: IC50 in cell proliferation assay, cell line G-361 (BRAF p.V600E)",4.66
same,pIC50,"[2]; Homo sapiens, HCC827, read-out: IC50 in cell proliferation assay, cell line HCC827 (EGFR exon19del)",5.66
same,pIC50,"[2]; Homo sapiens, HCC4006, read-out: IC50 in cell proliferation assay, cell line HCC4006 (EGFR exon19del)",4.58
same,pIC50,"[2]; Homo sapiens, HCT-15, read-out: IC50 in cell proliferation assay, cell line HCT 15",< 4.50
same,pIC50,"[2]; Homo sapiens, HCT-116, read-out: IC50 in cell proliferation assay, cell line HCT 116",4.56
same,pIC50,"[2]; Homo sapiens, HEC-1, read-out: IC50 in cell proliferation assay, HEC-1 cell line",4.95
same,pIC50,"[2]; Homo sapiens, HEC-1B, read-out: IC50 in cell proliferation assay, HEC-1-B cell line (EGFR p.A864V)",5.35
same,pIC50,"[2]; Homo sapiens, HL-60, read-out: IC50 in cell proliferation assay, HL-60 cell line",5.30
same,pIC50,"[2]; Homo sapiens, HT, read-out: IC50 in cell proliferation assay, HT cell line",5.33
same,pIC50,"[2]; Homo sapiens, HT-1080, read-out: IC50 in cell proliferation assay, HT-1080 cell line",5.40
same,pIC50,"[2]; Homo sapiens, Hs746T, read-out: IC50 in cell proliferation assay, Hs 746.T cell line (MET exon14skip + amplification)",5.35
same,pIC50,"[2]; Homo sapiens, Hs-578T, read-out: IC50 in cell proliferation assay, Hs 578T cell line",5.58
same,pIC50,"[2]; Homo sapiens, HuTu80, read-out: IC50 in cell proliferation assay, HuTu 80 cell line",4.82
same,pIC50,"[2]; Homo sapiens, J82, read-out: IC50 in cell proliferation assay, J82 cell line",4.62
same,pIC50,"[2]; Homo sapiens, Jurkat E6.1, read-out: IC50 in cell proliferation assay, Jurkat E6.1 cell line",5.16
same,pIC50,"[2]; Homo sapiens, K562, read-out: IC50 in cell proliferation assay, K-562 cell line",4.91
same,pIC50,"[2]; Homo sapiens, KATO III, read-out: IC50 in cell proliferation assay, KATO III cell line (FGFR2 amplification)",4.64
same,pIC50,"[2]; Homo sapiens, KG-1, read-out: IC50 in cell proliferation assay, KG-1 cell line (FGFR1OP2-FGFR1)",< 4.50
same,pIC50,"[2]; Homo sapiens, KLE, read-out: IC50 in cell proliferation assay, KLE cell line",5.36
same,pIC50,"[2]; Homo sapiens, KMS-11, read-out: IC50 in cell proliferation assay, KMS-11 cell line (FGFR3 p.Y373C)",4.94
same,pIC50,"[2]; Homo sapiens, KU812, read-out: IC50 in cell proliferation assay, Ku812 cell line",4.89
same,pIC50,"[2]; Homo sapiens, Kasumi 1, read-out: IC50 in cell proliferation assay, Kasumi-1 cell line (KIT p.N822K)",5.24
same,pIC50,"[2]; Homo sapiens, LC-2-ad, read-out: IC50 in cell proliferation assay, LC-2/ad cell line (CCDC6-RET)",7.02
same,pIC50,"[2]; Homo sapiens, LNCaP-Clone-FGC, read-out: IC50 in cell proliferation assay, LNCaP clone FGC cell line",6.92
same,pIC50,"[2]; Homo sapiens, LS174T, read-out: IC50 in cell proliferation assay, LS174T cell line",4.51
same,pIC50,"[2]; Homo sapiens, LS-411N, read-out: IC50 in cell proliferation assay, LS411N cell line (BRAF p.V600E)",4.58
same,pIC50,"[2]; Homo sapiens, LoVo, read-out: IC50 in cell proliferation assay, LoVo cell line",5.03
same,pIC50,"[2]; Homo sapiens, MCF7, read-out: IC50 in cell proliferation assay, MCF-7 cell line",4.93
same,pIC50,"[2]; Homo sapiens, MDA-MB-231, read-out: IC50 in cell proliferation assay, MDA-MB-231 cell line",< 4.50
same,pIC50,"[2]; Homo sapiens, MDA-MB-453, read-out: IC50 in cell proliferation assay, MDA-MB-453 cell line",< 4.50
same,pIC50,"[2]; Homo sapiens, MDA-MB-468, read-out: IC50 in cell proliferation assay, MDA-MB-468 cell line",5.89
same,pIC50,"[2]; Homo sapiens, MG-63, read-out: IC50 in cell proliferation assay, MG-63 cell line",5.11
same,pIC50,"[2]; Homo sapiens, MIA PaCa-2, read-out: IC50 in cell proliferation assay, MIA PaCa-2 cell line",4.89
same,pIC50,"[2]; Homo sapiens, MKN-45, read-out: IC50 in cell proliferation assay, MKN45 cell line (MET amplification)",5.63
same,pIC50,"[2]; Homo sapiens, MOLM-13, read-out: IC50 in cell proliferation assay, MOLM-13 cell line (FLT3 ITD)",8.40
same,pIC50,"[2]; Homo sapiens, MOLT-4, read-out: IC50 in cell proliferation assay, MOLT-4 cell line",5.23
